Test results: PMC9050923, “6,N^2-Diaryl-1,3,5-triazine-2,4-diamines: synthesis, antiproliferative activity and 3D-QSAR modeling” (RSC Advances, 2020)

Assays:
Type in all cases: cell-based
[1] = tested on: MDA-MB231; assay: MTT assay, MDA-MB231 breast cancer cells; conditions: Homo sapiens, MDA-MB-231; 10 μM, 72 h after the treatment, MTT, mean of three independent experiments; read-out: Percentage of cell viability MDA-MB231
Method: (§1) The prepared compounds 1–126 were tested on three breast cancer cell lines namely, MDA-MB231, SKBR-3 and MCF-7 using MTT assay. SKBR-3 and MCF-7 cell lines are estrogen and progesterone hormone positive cell lines often used as a model for the hormone therapy.[18] MDA-MB231 is triple negative breast cancer cell line, which is negative to estrogen and progesterone receptors and human epidermal growth factor receptor 2, a perfect model for chemotherapy.[18] Initially, all the prepared compounds 1–126 were tested on these three cancer cell lines at the screening concentration (10 μM) and percentage of cell viability was calculated 72 h after the treatment (Table 1).
(§2) The growth inhibitory effect of the compounds was determined on breast tumor cell line (MDA-MB231, SKBR-3 and MCF-7) at different concentrations with methotrexate and nilotinib as positive controls (Table 2).
(§3) The cytotoxic activity of 6,N^2-diaryl-1,3,5-triazine-2,4-diamines (1–126) was evaluated against three breast carcinoma cell lines (MDA-MB231, SKBR-3, and MCF-7) and normal breast cell line (MCF-10A) by MTT assay.[22] All cells were obtained from the American Type Culture Collection and were grown in 10% fetal bovine serum and 1% pen-strep antibiotic supplemented media (DMEM for MDA-MB231 and SKBR-3, RPMI for MCF-7, and MEGM for MCF-10A). For MTT assay, 20 000 to 75 000 cells per mL (based on the doubling time for each cell line) were seeded in 96 well plates and incubated for 24 h at 37 °C in 5% CO2 incubator. Then, compounds at different concentrations were added followed by the incubation at 37 °C for 72 h. After that, MTT solution (0.5 mg mL^−1) was added and the plates were incubated for another 4 h. The supernatant was then discarded and 100 μL of DMSO was added to each well. The plates were then read by Tecan NanoQuant (model: infinite m200 pro) plate reader and absorbance was measured at 570 nm. GI50 values were calculated using sigmoidal concentration–response curves (see ESI ^†) generated using the GraphPad Prism 7 program. Three independent experiments were carried out and the data were represented as mean of the three experiments.

[2] = tested on: MCF-7; assay: MTT assay, MCF-7 breast cancer cells; conditions: Homo sapiens, MCF7, 10 μM, 72 h after the treatment, mean of three independent experiments, read-out: Percentage of cell viability MCF-7
Method: as §1, §2, §3

[3] = tested on: SKBR-3; assay: MTT assay, SKBR-3 breast cancer cells; conditions: Homo sapiens, SK-BR-3; 10 μM, 72 h after the treatment, MTT, mean of three independent experiments; read-out: Percentage of cell viability SKBR-3
Method: as §1, §2, §3

SMILES | viability at 10 µM [1] [%] | viability at 10 µM [2] [%] | viability at 10 µM [3] [%]
COc1ccc(Nc2nc(N)nc(-c3cccc(C)c3)n2)cc1 [Compound 57, N ^2-(4-Methoxyphenyl)-6-(3-methylphenyl)-1,3,5-triazine-2,4-diamine] | 91 | 75 | 90
Cc1cccc(-c2nc(N)nc(Nc3ccc(C(C)C)cc3)n2)c1 [Compound 59, N ^2-(4-Isopropylphenyl)-6-(3-methylphenyl)-1,3,5-triazine-2,4-diamine] | 87 | 76 | 93
Cc1ccc(-c2nc(N)nc(Nc3ccccc3)n2)cc1 [Compound 60] | 84 | 100 | 100
Cc1ccc(-c2nc(N)nc(Nc3ccc(Br)cc3)n2)cc1 [Compound 63] | 87 | 93 | 100
Cc1ccc(Nc2nc(N)nc(-c3ccc(C)cc3)n2)cc1 [Compound 64] | 59 | 86 | 92
COc1ccc(Nc2nc(N)nc(-c3ccc(C)cc3)n2)cc1 [Compound 66] | 83 | 100 | 89
Cc1ccc(-c2nc(N)nc(Nc3ccc(OC(F)(F)F)cc3)n2)cc1 [Compound 67] | 92 | 93 | 84
Cc1ccc(-c2nc(N)nc(Nc3ccc(C(C)C)cc3)n2)cc1 [Compound 68] | 76 | 100 | 91
Cc1ccc(-c2nc(N)nc(Nc3cccnc3)n2)cc1 [Compound 69] | 74 | 88 | 79
COc1ccc(-c2nc(N)nc(Nc3ccc(F)cc3)n2)cc1 [Compound 72] | 68 | 100 | 100
COc1ccc(-c2nc(N)nc(Nc3ccc(Cl)cc3)n2)cc1 [Compound 75] | 99 | 100 | 100
COc1ccc(-c2nc(N)nc(Nc3ccc(Br)cc3)n2)cc1 [Compound 76] | 96 | 91 | 100
COc1ccc(-c2nc(N)nc(Nc3ccc(OC(F)(F)F)cc3)n2)cc1 [Compound 79] | 74 | 95 | 84
COc1ccc(-c2nc(N)nc(Nc3ccc(C(C)C)cc3)n2)cc1 [Compound 80] | 92 | 100 | 86
Nc1nc(Nc2ccccc2)nc(-c2ccc(C(F)(F)F)cc2)n1 [Compound 82] | 55 | 96 | 97
Nc1nc(Nc2ccccc2F)nc(-c2ccc(C(F)(F)F)cc2)n1 [Compound 83] | 55 | 93 | 71
Nc1nc(Nc2ccc(Cl)cc2)nc(-c2ccc(C(F)(F)F)cc2)n1 [Compound 85] | 90 | 99 | 77
Cc1ccc(Nc2nc(N)nc(-c3ccc(C(F)(F)F)cc3)n2)cc1 [Compound 86] | 54 | 83 | 95
COc1ccccc1Nc1nc(N)nc(-c2ccc(C(F)(F)F)cc2)n1 [Compound 87] | 63 | 100 | 85
COc1ccc(Nc2nc(N)nc(-c3ccc(C(F)(F)F)cc3)n2)cc1 [Compound 88] | 81 | 100 | 86

SMILES | viability at 10 µM [1] [%] | viability at 10 µM [2] [%] | viability at 10 µM [3] [%]
Nc1nc(Nc2ccccc2)nc(-c2ccc(OC(F)(F)F)cc2)n1 [Compound 89] | 59 | 95 | 90
Nc1nc(Nc2ccccc2F)nc(-c2ccc(OC(F)(F)F)cc2)n1 [Compound 90] | 60 | 90 | 80
Nc1nc(Nc2ccccc2Cl)nc(-c2ccc(OC(F)(F)F)cc2)n1 [Compound 92] | 74 | 96 | 86
Nc1nc(Nc2ccc(Br)cc2)nc(-c2ccc(OC(F)(F)F)cc2)n1 [Compound 93] | 83 | 90 | 96
Cc1ccc(Nc2nc(N)nc(-c3ccc(OC(F)(F)F)cc3)n2)cc1 [Compound 94] | 79 | 97 | 87
COc1ccc(Nc2nc(N)nc(-c3ccc(OC(F)(F)F)cc3)n2)cc1 [Compound 96] | 69 | 87 | 88
Nc1nc(Nc2ccc(OC(F)(F)F)cc2)nc(-c2ccc(OC(F)(F)F)cc2)n1 [Compound 97] | 92 | 100 | 80
CC(C)c1ccc(Nc2nc(N)nc(-c3ccc(OC(F)(F)F)cc3)n2)cc1 [Compound 98] | 100 | 95 | 90
CC(C)c1ccc(Nc2nc(N)nc(-c3ccc(N(C)C)cc3)n2)cc1 [Compound 104] | 70 | 100 | 87
CC(C)(C)c1ccc(-c2nc(N)nc(Nc3ccccc3)n2)cc1 [Compound 105] | 74 | 96 | 100
CC(C)(C)c1ccc(-c2nc(N)nc(Nc3ccc(F)cc3)n2)cc1 [Compound 106] | 97 | 88 | 84
CC(C)(C)c1ccc(-c2nc(N)nc(Nc3ccc(Cl)cc3)n2)cc1 [Compound 107] | 100 | 98 | 92
CC(C)(C)c1ccc(-c2nc(N)nc(Nc3ccc(Br)cc3)n2)cc1 [Compound 108] | 59 | 99 | 98
COc1ccc(Nc2nc(N)nc(-c3ccc(C(C)(C)C)cc3)n2)cc1 [Compound 109] | 91 | 93 | 85
Nc1nc(Nc2ccc(Br)cc2)nc(-c2ccc(OCc3ccccc3)cc2)n1 [Compound 112] | 82 | 97 | 93
Cc1ccc(Nc2nc(N)nc(-c3ccc(OCc4ccccc4)cc3)n2)cc1 [Compound 113] | 82 | 100 | 94
Nc1nc(Nc2ccc(OC(F)(F)F)cc2)nc(-c2ccc(OCc3ccccc3)cc2)n1 [Compound 114] | 71 | 100 | 87
Nc1nc(Nc2ccccc2)nc(-c2cccs2)n1 [Compound 115] | 100 | 91 | 87
Nc1nc(Nc2ccccc2F)nc(-c2cccs2)n1 [Compound 116, N ^2-(2-Fluorophenyl)-6-(thiophen-2-yl)-1,3,5-triazine-2,4-diamine] | 98 | 90 | 78
Nc1nc(Nc2ccc(F)cc2)nc(-c2cccs2)n1 [Compound 117] | 100 | 92 | 86
